Measurements: patent publication US11919886B2, “4,9-dioxo-4,9-dihydronaphtho[2,3-B]furan-3-carboxamide derivatives and uses thereof for treating proliferative diseases and infectious diseases” (Academia Sinica, priority 2016, dated 2024)
≈ marks a conversion by molar mass, not a printed value. Like-named read-outs stand apart in the source and are kept apart here.

Key:
[1] = tested on: PC9/IR (human lung adenocarcinoma cells, EGFR del 19 mutation but resistant to gefitinib); assay: SRB cytotoxicity assay, PC9/IR; settings: 72 h
[2] = tested on: PC9 (human lung adenocarcinoma cells, EGFR del 19 mutation and sensitive to gefitinib); assay: SRB cytotoxicity assay, PC9; settings: 72 h
[3] = tested on: Staphylococcus lugdunensis; assay: MIC, broth micro dilution method; assay type: cell-based; settings: clinical isolate; for MIC: Staphylococcus lugdunensis, strain NTUH-4179, methicillin-resistant
H1975 cell line = assay: Sulforhodamine B colorimetric (SRB) assay, H1975; settings: Homo sapiens, NCI-H1975, 72 h
[4] = tested on: subcutaneous H1975 tumors; assay: H1975 xenograft tumor growth in athymic nude mice (compound 1); assay type: in vivo; settings: for average tumor size: day 27
Description: Panel (A): The structure of compound 1. Panel(B): A chart showing exemplary results for the cytotoxicity assay of Compound 1-treated cancer cells for 72 hours. […] Panel (C): Photos showing the different tumor sizes and TUNEL assay results between DMSO control and Compound 1-treated mice. H1975 (3×10^6) cells were subcutaneously injected into male nu/nu mice, and daily treated intraperitoneally with Compound I at indicated dose or DMSO for 4 weeks. During the treatment, tumor size and body weights were measured every 3 to 4 days; and the histology was confirmed by H&E staining (left lower panel of panel (C).
Exemplary results are shown in Panel (C) of FIG. 1. […] (Panel (C) of FIG. 1). In addition, the body weight of the mice was calculated when the tumor size was measured. Serum was also collected, and biological analysis in vitro was performed. […] Inhibition of tumor growth of Compound 1 with low cytotoxicity in vivo was observed.

[5] = tested on: Streptococcus gallolyticus subsp. gallolyticus; assay: MIC, broth micro dilution method; assay type: cell-based; settings: strain ATCC43143, S. bovis
[6] = tested on: Streptococcus infantarius subsp. infantarius; assay: MIC, broth micro dilution method; assay type: cell-based; settings: strain ATCC BAA-102, S. bovis
[7] = tested on: HS68 (human foreskin fibroblast cells, used as normal cells); assay: SRB cytotoxicity assay, HS68 normal cells; settings: Hs68, 72 h
[8] = tested on: Streptococcus gallolyticus subsp. pasteurianus; assay: MIC, broth micro dilution method; assay type: cell-based; settings: strain ATCC43144, S. bovis
[9] = tested on: Breast Cancer Cells (MDA-MB231); assay: Cell viability by Cell-TiterGlo; assay type: cell-based; settings: Homo sapiens, MDA-MB-231, 48 h, two days, read-out: % of the activities in the presence of ~10 μM compound, Breast Cancer Cells (MDA-MB231)
Description: (§1) Compound 1 and its analogues shown in Table 6 below were tested for their activities on cancer cells and bacterial cells using assays described herein. H1975, MDA-MB231, and MCF7 cells were incubated in the presence of the compounds in cell growth medium containing 10% fetal bovine serum for two days in a mammalian cell culture incubatoe. Cell viability were monitored by using Cell-TiterGlo. Staphylococcus aureus and Escherichia coli were incubated in the presence of the compounds in Muller-Hinton broth for 16-24 hours in a 37° C. incubator. Bacterial growth was monitored by using Alamar Blue (Invitrogen).

[10] = tested on: Lung Cancer Cells (H1975); assay: Cell viability by Cell-TiterGlo; assay type: cell-based; settings: Homo sapiens, NCI-H1975, 48 h, two days, read-out: % of the activities in the presence of ~10 μM compound, Lung Cancer Cells (H1975)
Description: as §1

[11] = tested on: Breast Cancer Cells (MCF); assay: Cell viability by Cell-TiterGlo; assay type: cell-based; settings: Homo sapiens, 48 h, two days, read-out: % of the activities in the presence of ~10 μM compound, Breast Cancer Cells (MCF)
Description: as §1

[12] = tested on: A549 (adenocarcinomic human alveolar basal epithelial cells); assay: SRB cytotoxicity assay, A549; settings: A549, 72 h
[13] = tested on: Staphylococcus haemolyticus; assay: MIC, broth micro dilution method; assay type: cell-based
Acinetobacter baumannii = assay: MIC, broth micro dilution method; assay type: cell-based
MCM2 = biological target: T1, MCM2 (Homo sapiens, UniProt P49736); assay: MCM2 ubiquitination (Myc-Ub transfection, MCM2 immunoprecipitation); assay type: cell-based; settings: H1975 co-expressing Myc-Ub, 140 nM, 12 hours
T1 construct: The MCM2 proteins were pulled down by incubating the H1975 lysate with compound 1-conjugated magnetic beads; endogenous in cells; host or cells: H1975
T1 sequence (P49736 whole entry): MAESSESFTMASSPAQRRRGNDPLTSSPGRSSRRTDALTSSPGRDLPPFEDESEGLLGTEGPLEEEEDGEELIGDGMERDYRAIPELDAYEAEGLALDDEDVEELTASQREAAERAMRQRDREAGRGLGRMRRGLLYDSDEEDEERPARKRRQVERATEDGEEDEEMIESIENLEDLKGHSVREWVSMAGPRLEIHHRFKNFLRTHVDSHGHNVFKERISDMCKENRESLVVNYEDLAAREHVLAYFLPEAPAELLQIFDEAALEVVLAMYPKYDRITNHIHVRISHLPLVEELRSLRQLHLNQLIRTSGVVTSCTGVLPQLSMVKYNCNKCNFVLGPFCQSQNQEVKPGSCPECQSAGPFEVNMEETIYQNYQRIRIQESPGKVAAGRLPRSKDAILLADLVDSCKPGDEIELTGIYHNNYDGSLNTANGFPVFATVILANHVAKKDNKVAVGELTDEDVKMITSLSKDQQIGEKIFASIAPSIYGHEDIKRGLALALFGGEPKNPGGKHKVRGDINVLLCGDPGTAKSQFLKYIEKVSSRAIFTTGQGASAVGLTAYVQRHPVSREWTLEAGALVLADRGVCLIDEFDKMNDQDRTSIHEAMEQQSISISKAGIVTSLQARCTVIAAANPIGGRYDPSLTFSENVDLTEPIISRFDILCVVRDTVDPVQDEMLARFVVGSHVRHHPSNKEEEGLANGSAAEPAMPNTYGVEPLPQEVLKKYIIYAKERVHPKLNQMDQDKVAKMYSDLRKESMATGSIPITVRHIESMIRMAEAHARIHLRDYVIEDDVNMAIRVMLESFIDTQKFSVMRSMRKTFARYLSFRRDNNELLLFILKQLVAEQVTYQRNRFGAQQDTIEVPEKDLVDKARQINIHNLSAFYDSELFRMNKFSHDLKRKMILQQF
Description: To determine whether Compound 1 triggers MCM2 degradation through promoting MCM2 ubiquitination, Myc-tagged ubiquitin (Myc-Ub) was transfected into H1975 cells treated with or without compound 1 and followed by MCM2 immunoprecipitation. The cells were transiently transfected with pcDNA3-Myc-Ub and treated with or without 140 nM of compound 1 combined with MG132. After 12 hours, the cells were harvested and MCM2 proteins were precipitated with specific anti-MCM2 antibodies. The ubiqiuitination pattern were detected by immunoblotting. IgG served as the antibody control in the immunoprecipitation experiment.

Pseudomonas aeruginosa = assay: MIC, broth micro dilution method; assay type: cell-based
[14] = tested on: Streptococcus infantarius subsp. coli; assay: MIC, broth micro dilution method; assay type: cell-based; settings: strain ATCC BAA-103, S. bovis
[15] = strain NTUH-6767, methicillin-resistant

## Cc1oc2c(c1C(=O)NCCCn1ccnc1)C(=O)c1ccccc1C2=O [Compound 1, N-(3-(1H-Imidazol-1-yl)propyl)-2-methyl-4,9-dioxo-4,9-dihydronaphtho [2,3-b]furan-3-carboxamide]
[1]
  IC50: 48 nM
[2]
  IC50: 37 nM
[3]; read-out: MIC (μg/ml) 100%
  MIC: 4 µg/mL (≈ 11 µM)
[3]; read-out: MIC (μg/ml) 50%
  MIC: 0.5 µg/mL (≈ 1.38 µM)
[3]; [15]
  MIC (μg/ml) 50%: 0.5 µg/mL (≈ 1.38 µM)
  MIC (μg/ml) 100%: 4 µg/mL (≈ 11 µM)
H1975 cell line; H1975, 72 h
  IC50: 77 nM
H1975 cell line; H1975 cell line, SRB assay, 72 hours
  IC50: 77 to 247 nM
[4]; 1 mg/kg daily intraperitoneal
  average tumor size: 701.2±196.5 mm^3
[4]; 1 mg/kg or 4 mg/kg daily intraperitoneal, 4 weeks
  body weight and serum biological analysis, control group vs compound treatment group: Few differences
[4]; 4 mg/kg daily intraperitoneal
  average tumor size: 518.0±93.0 mm^3
[5]; read-out: MIC (μg/ml) 100%
  MIC: 4 µg/mL (≈ 11 µM)
[5]; read-out: MIC (μg/ml) 50%
  MIC: 2 µg/mL (≈ 5.5 µM)
[6]; read-out: MIC (μg/ml) 100%
  MIC: 8 µg/mL (≈ 22 µM)
[6]; read-out: MIC (μg/ml) 50%
  MIC: 4 µg/mL (≈ 11 µM)
[7]
  IC50: > 1000 nM
[8]; read-out: MIC (μg/ml) 100%
  MIC: 4 µg/mL (≈ 11 µM)
[8]; read-out: MIC (μg/ml) 50%
  MIC: 2 µg/mL (≈ 5.5 µM)
[9]
  viability at 10 µM: 13.7%
[10]
  viability at 10 µM: 4.2%
[11]
  viability at 10 µM: 6%
[12]
  IC50: 53 nM
[13]; read-out: MIC (μg/ml) 100%, strain ATCC29970, methicillin-susceptible
  MIC: 4 µg/mL (≈ 11 µM)
[13]; strain ATCC29970, methicillin-susceptible, read-out: MIC (μg/ml) 50%
  MIC: 2 µg/mL (≈ 5.5 µM)
Acinetobacter baumannii; read-out: MIC (μg/ml) 100%, strain ATCC19606, gram negative
  MIC: > 32 µg/mL
Acinetobacter baumannii; strain ATCC19606, gram negative, read-out: MIC (μg/ml) 50%
  MIC: > 32 µg/mL
MCM2
  Ubiquitylated MCM2: detected in treated cells
Pseudomonas aeruginosa; read-out: MIC (μg/ml) 100%, strain ATCC27853, gram negative
  MIC: > 32 µg/mL
Pseudomonas aeruginosa; strain ATCC27853, gram negative, read-out: MIC (μg/ml) 50%
  MIC: > 32 µg/mL
[14]; read-out: MIC (μg/ml) 100%
  MIC: 4 µg/mL (≈ 11 µM)
[14]; read-out: MIC (μg/ml) 50%
  MIC: 2 µg/mL (≈ 5.5 µM)
